Laboratory results reported in patent publication US8802597B2, “Herbicidal pyrimidines” (E I du Pont de Nemours and Company, priority 2003, dated 2014).

Columns and labels:
Format in all cases: in vivo
[1] = test system: ducksalad (Heteranthera limosa); assay: Test E flooded paddy water application; conditions: Flood, 21 days, scale 0 to 100 (0 no effect, 100 complete control)
How it was run: (§1)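 Weeds sown in sterilized Tama silt loam (2.6% organic matter), greenhouse 29.5/26.7° C, 16-h photoperiod; at 2.0–2.5-leaf stage pots flooded to 3 cm and compound added to paddy water. Visual rating vs untreated controls after 21 days, 0 (no effect) to 100 (complete control).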

[2] = test system: purple redstem (Ammannia coccinea); assay: Test E flooded paddy water application; conditions: Flood, 21 days, scale 0 to 100 (0 no effect, 100 complete control)
How it was run: as §1

[3] = test system: rice flatsedge (Cyperus iria); assay: Test E flooded paddy water application; conditions: Flood, 21 days, scale 0 to 100 (0 no effect, 100 complete control)
How it was run: as §1

[4] = test system: bearded (brdd.) sprangletop (Leptochloa fusca ssp. fascicularis); assay: Test E flooded paddy water application; conditions: Flood, 21 days, scale 0 to 100 (0 no effect, 100 complete control)
How it was run: as §1

[5] = test system: early watergrass (Echinochloa oryzoides); assay: Test E flooded paddy water application; conditions: Flood, 21 days, scale 0 to 100 (0 no effect, 100 complete control)
How it was run: as §1

[6] = test system: barnyardgrass (Echinochloa crus-galli); assay: Test E flooded paddy water application; conditions: Flood, 21 days, scale 0 to 100 (0 no effect, 100 complete control)
How it was run: as §1

[7] = test system: smallflower umbrella sedge (Cyperus difformis); assay: Test E flooded paddy water application; conditions: Flood, 21 days, scale 0 to 100 (0 no effect, 100 complete control)
How it was run: as §1

[8] = test system: late watergrass (Echinochloa oryzicola); assay: Test E flooded paddy water application; conditions: Flood, 21 days, scale 0 to 100 (0 no effect, 100 complete control)
How it was run: as §1

[9] = test system: water seeded rice seedlings (Oryza sativa cv. ‘Japonica-M202’); assay: Test E flooded paddy water application; conditions: Flood, 21 days, scale 0 to 100 (0 no effect, 100 complete control)
How it was run: as §1

[10] = test system: junglerice (Echinochloa colona); assay: Test E flooded paddy water application; conditions: Flood, 21 days, scale 0 to 100 (0 no effect, 100 complete control)
How it was run: as §1

[11] = test system: transplanted rice seedlings (Oryza sativa cv. ‘Japonica-M202’); assay: Test E flooded paddy water application; conditions: Flood, 21 days, scale 0 to 100 (0 no effect, 100 complete control)
How it was run: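 Greenhouse pots of Tama silt loam with weeds and rice at 2.0–2.5-leaf stage, flooded to 3 cm; compounds applied directly into paddy water, depth maintained. Visual rating versus untreated controls after 21 days, 0 (no effect) to 100 (complete control); 29.5/26.7 °C, 16-h photoperiod.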

[12] = test system: giant foxtail (Setaria faberi); assay: Test A pre/postemergence
How it was run: (§2)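 Soil: loam blended with sand. Formulation: non-phytotoxic solvent mixture with surfactant. Timing: preemergence soil spray plus concurrent postemergence spray (plants 2–10 cm, 1–2 leaves). Readout: visual injury versus untreated controls at ~10 days, 0–100.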

[13] = test system: redroot pigweed (Amaranthus retroflexus); assay: Test A pre/postemergence
How it was run: as §2

[14] = test system: barnyardgrass (Echinochloa crus-galli); assay: Test A pre/postemergence
How it was run: as §2

[15] = test system: crabgrass (Digitaria sanguinalis); assay: Test A pre/postemergence
How it was run: as §2

[16] = test system: velvetleaf (Abutilon theophrasti); assay: Test A pre/postemergence
How it was run: as §2

[17] = test system: morningglory (Ipomoea spp.); assay: Test A pre/postemergence
How it was run: as §2

[18] = Postemergence, 125 g ai/ha, 0 to 100 scale (0 no effect, 100 complete control)
[19] = Postemergence, 500 g ai/ha, 0 to 100 scale (0 no effect, 100 complete control)
[20] = Preemergence, 125 g ai/ha, 0 to 100 scale where 0 is no effect and 100 is complete control, approximately ten days
[21] = Preemergence, 500 g ai/ha, 0 to 100 scale where 0 is no effect and 100 is complete control, approximately ten days

CCOC(=O)c1nc(-c2ccc(Cl)cc2Cl)nc(N)c1Br [Compound 67]
Ducksalad plant response rating ([1]; 32 g ai/ha): 100 | Ducksalad plant response rating ([1]; 64 g ai/ha): 100 | Ducksalad plant response rating ([1]; 125 g ai/ha): 100 | Ducksalad plant response rating ([1]; 250 g ai/ha): 100 | Plant response rating, Ducksalad ([1]; 16 g ai/ha): 85 | Redstem plant response rating ([2]; 32 g ai/ha): 0 | Redstem plant response rating ([2]; 64 g ai/ha): 0 | Redstem plant response rating ([2]; 125 g ai/ha): 0 | Redstem plant response rating ([2]; 250 g ai/ha): 85 | Plant response rating, Redstem ([2]; 16 g ai/ha): 0 | Flatsedge, Rice plant response rating ([3]; 32 g ai/ha): 0 | Flatsedge, Rice plant response rating ([3]; 64 g ai/ha): 30 | Flatsedge, Rice plant response rating ([3]; 125 g ai/ha): 60 | Flatsedge, Rice plant response rating ([3]; 250 g ai/ha): 60 | Plant response rating, Flatsedge, Rice ([3]; 16 g ai/ha): 0 | Sprangletop, Brdd. plant response rating ([4]; 32 g ai/ha): 0 | Sprangletop, Brdd. plant response rating ([4]; 64 g ai/ha): 0 | Sprangletop, Brdd. plant response rating ([4]; 125 g ai/ha): 30 | Sprangletop, Brdd. plant response rating ([4]; 250 g ai/ha): 30 | Plant response rating, Sprangletop, Brdd. ([4]; 16 g ai/ha): 0 | Watergrass, Early plant response rating ([5]; 32 g ai/ha): 0 | Watergrass, Early plant response rating ([5]; 64 g ai/ha): 0 | Watergrass, Early plant response rating ([5]; 125 g ai/ha): 0 | Watergrass, Early plant response rating ([5]; 250 g ai/ha): 0 | Plant response rating, Watergrass, Early ([5]; 16 g ai/ha): 0 | Barnyardgrass plant response rating ([6]; 32 g ai/ha): 0 | Barnyardgrass plant response rating ([6]; 64 g ai/ha): 0 | Barnyardgrass plant response rating ([6]; 125 g ai/ha): 40 | Barnyardgrass plant response rating ([6]; 250 g ai/ha): 40 | Plant response rating, Barnyardgrass ([6]; 16 g ai/ha): 0 | Sedge, Umbrella plant response rating ([7]; 32 g ai/ha): 0 | Sedge, Umbrella plant response rating ([7]; 64 g ai/ha): 0 | Sedge, Umbrella plant response rating ([7]; 125 g ai/ha): 40 | Sedge, Umbrella plant response rating ([7]; 250 g ai/ha): 70 | Plant response rating, Sedge, Umbrella ([7]; 16 g ai/ha): 0 | Watergrass, Late plant response rating ([8]; 32 g ai/ha): 0 | Watergrass, Late plant response rating ([8]; 64 g ai/ha): 0 | Watergrass, Late plant response rating ([8]; 125 g ai/ha): 0 | Watergrass, Late plant response rating ([8]; 250 g ai/ha): 0 | Plant response rating, Watergrass, Late ([8]; 16 g ai/ha): 0 | Rice, Water Seeded plant response rating ([9]; 32 g ai/ha): 0 | Rice, Water Seeded plant response rating ([9]; 64 g ai/ha): 0 | Rice, Water Seeded plant response rating ([9]; 125 g ai/ha): 0 | Rice, Water Seeded plant response rating ([9]; 250 g ai/ha): 0 | Plant response rating, Rice, Water Seeded ([9]; 16 g ai/ha): 0 | Junglerice plant response rating ([10]; 32 g ai/ha): 0 | Junglerice plant response rating ([10]; 64 g ai/ha): 0 | Junglerice plant response rating ([10]; 125 g ai/ha): 30 | Junglerice plant response rating ([10]; 250 g ai/ha): 65 | Plant response rating, Junglerice ([10]; 16 g ai/ha): 0 | Rice, Transplanted plant response rating ([11]; 32 g ai/ha): 0 | Rice, Transplanted plant response rating ([11]; 64 g ai/ha): 0 | Rice, Transplanted plant response rating ([11]; 125 g ai/ha): 0 | Rice, Transplanted plant response rating ([11]; 250 g ai/ha): 0 | Plant response rating, Rice, Transplanted ([11]; 16 g ai/ha): 0 | Plant response rating, Foxtail, Giant [12, 18]: 0 | Plant response rating, Foxtail, Giant [12, 19]: 0 | Plant response rating, Foxtail, Giant [12, 20]: 0 | Plant response rating, Foxtail, Giant [12, 21]: 30 | Plant response rating, Pigweed [13, 18]: 90 | Plant response rating, Pigweed [13, 19]: 90 | Plant response rating, Pigweed [13, 20]: 10 | Plant response rating, Pigweed [13, 21]: 75 | Plant response rating, Barnyardgrass [14, 18]: 0 | Plant response rating, Barnyardgrass [14, 19]: 0 | Plant response rating, Barnyardgrass [14, 20]: 0 | Plant response rating, Barnyardgrass [14, 21]: 0 | Plant response rating, Crabgrass [15, 18]: 5 | Plant response rating, Crabgrass [15, 19]: 5 | Plant response rating, Crabgrass [15, 20]: 0 | Plant response rating, Crabgrass [15, 21]: 30 | Plant response rating, Velvetleaf [16, 18]: 65 | Plant response rating, Velvetleaf [16, 19]: 75 | Plant response rating, Velvetleaf [16, 20]: 10 | Plant response rating, Velvetleaf [16, 21]: 40 | Plant response rating, Morningglory [17, 18]: 50 | Plant response rating, Morningglory [17, 19]: 60 | Plant response rating, Morningglory [17, 20]: 0 | Plant response rating, Morningglory [17, 21]: 0
